From patent publication US20080132500A1, “Antibiotic compounds” (priority 2006, published 2008)
Values after ≈ are worked out from the molar mass of the structure shown. Where two headings read alike, the source gives them in different places.

Tests used:
Assay in all cases: Microbroth dilution MIC
Format in all cases: cell-based
[1] = tested on: Staphylococcus Aureus MB 2865; conditions: Staphylococcus Aureus strain MB 2865
Description: (§1) Cation-Adjusted Mueller Hinton Broth (BBL): Prepared according to manufacturer's instructions (22 gms dissolved in 1000 mL water; autoclaved 22 minutes). Stored refrigerated. Filter-sterilized before use using a Coming 0.45 Tm cellulose acetate filter.
(§2) The type of strains listed above can be obtained from publicly available sources. The strain of Haemophilus influenzae used in to assay the compound of this invention is a mouse pathogen used for in vivo testing at Merck. The Escherichia coli strain used in to assay the compound of this invention is a cell wall permeable strain. The Candida albicans strain is used as a control. These culture are maintained as frozen stocks at −80° C. in a) Microbank beads; b) 2× Skim Milk; or c) in 2× X Trypticase Soy Broth+15% glycerol/50% horse serum (Haemophilus and Streptococcus pneumoniae).
(§3) Selected isolates are sub-cultured onto either Chocolate Agar Plates (Haemophilus influenzae), onto Trypticase Soy+5% Sheep Blood Agar Plates (Streptococcus pneumoniae, Staphylococcus aureus, Escherichia coli, Enterococcus, Bacillus) or onto Sabouraud Dextrose Agar (Candida) and incubated at 35° C. Haemophilus and Streptococcus pneumoniae are incubated in 5% CO2; all other isolates are incubated in ambient air. Isolates are sub-cultured 2× before assay.
(§4) Colonies are selected from plates and used to prepare an inoculum equivalent to a 0.5 McFarland standard in Trypticase Soy Broth. An inoculum with a density equivalent to a 1.0 McFarland standard is prepared for Streptococcus pneumoniae. The inoculum density for all cultures is ˜10^8 CFU/mL in TSB. This TSB inoculum is diluted 1:10 in sterile saline (4 mL inoculum+36 mL saline; equivalent to ˜10^7 CFU/mL) and kept on ice until used to inoculate microtiter plates.
(§5) All wells of 96-well microtiter plates (Dynex) are filled with 100 TL media. Haemophilus test media plates are prepared to test Haemophilus influenzae; Cation-Adjusted Mueller Hinton+5% Lysed Horse Blood plates are prepared to test Streptococcus pneumoniae; Cation-Adjusted Mueller Hinton Broth plates are prepared to test Enterococcus, Staphylococcus aureus, Escherichia coli and Bacillus subtilis. RPMI 1640 is used to test Candida. The MICs against S. aureus Smith are determined in Cation-adjusted Mueller Hinton and in Cation-Adjusted Mueller Hinton+50% Human Serum, to determine if the compound is inactivated by some component in serum (indicated by an increase in the MIC). Filled plates are wrapped in plastic bags (to minimize evaporation), stored frozen and thawed before use.
(§6) The compounds are prepared on a weight basis. Compounds are prepared to 2-10 mg/mL in 100% DMSO, then diluted to 1 mg/mL in a 1:1 dilution of DMSO/233 CAMHB (final concentration=50% DMSO/50% CAMHB). Compounds are serially diluted 1:1 in 50% DMSO/50% CAMHB in BD Biosciences Deep Well Polypropylene 96 well plates (starting concentration 1-5 mg/mL).
(§7) Using a Finn Automated Multichannel Pipette, (0.5-10 μL volume) 6.4 TLs of antimicrobial working solutions are added to wells of filled microtiter plates (concentration of antimicrobial in first well=512-64 microg/mL; concentration of DMSO=3.2%). Antimicrobials are added in this manner to keep constant the amount of DMSO in each well (to keep compounds solubilized and to account for the possibility of non-specific killing by the DMSO. The last row contains a growth control of 3.2% DMSO.
(§8) Controls (Penicillin G and chloramphenicol) are run with each assay. The controls are prepared in the same manner as described for the compounds of the invention. Ertapenem is included as a control for the serum protein binding assay.
(§9) Plates are incubated at 35° C. in ambient air. An uninoculated plate is also incubated as a sterility check. Results are recorded after 22-24-hours' incubation. Plates were read to no growth.

[2] = tested on: Enterococcus Faecalia CLB 21560
Description: as §1, §2, §3, §4, §5, §6, §7, §8, §9

[3] = tested on: Staphylococcus Aureus CL 8260; conditions: Staphylococcus Aureus strain CL 8260
Description: as §1, §2, §3, §4, §5, §6, §7, §8, §9

[4] = tested on: Staphylococcus Aureus CL 5814; conditions: Staphylococcus Aureus strain CL 5814
Description: as §1, §2, §3, §4, §5, §6, §7, §8, §9

Structure (SMILES) | MIC [1] | MIC ([2]; Enterococcus) | MIC [3] | MIC [4] | MIC ([2]; Enterococcus Faecalia strain CLB 21560, read-out: MIC)
CO/C(C)=C1/NC(=O)[C@H]([C@@H](C)O)NC(=O)c2csc(n2)-c2cc(O)c(-c3nc(CNC(=O)CN4CCOCC4)cs3)nc2-c2csc(n2)[C@@H]2COC(=O)c3c4c5c(cccc5n3O)COC(=O)[C@@H](O[C@H]3C[C@](C)(O)[C@H](N(C)C)[C@H](C)O3)[C@@H](OC4)[C@H](NC(=O)c3csc1n3)c1nc(cs1)C(=O)N2 [Compound A] | 0.0075 µg/mL (≈ 0.00506 µM) | 0.015 µg/mL (≈ 0.0101 µM) | 0.015 µg/mL (≈ 0.0101 µM) | 0.0038 µg/mL (≈ 0.00256 µM) | –
CO/C(C)=C1/NC(=O)[C@H]([C@@H](C)O)NC(=O)c2csc(n2)-c2cc(O)c(-c3nc(CNCCO)cs3)nc2-c2csc(n2)[C@@H]2COC(=O)c3c4c5c(cccc5n3O)COC(=O)[C@@H](O[C@H]3C[C@](C)(O)[C@H](N(C)C)[C@H](C)O3)[C@@H](OC4)[C@H](NC(=O)c3csc1n3)c1nc(cs1)C(=O)N2 [Compound B] | 0.03 µg/mL (≈ 0.0215 µM) | – | 0.03 µg/mL (≈ 0.0215 µM) | 0.0075 µg/mL (≈ 0.00536 µM) | 0.06 µg/mL (≈ 0.0429 µM)
